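Each compound was tested at five concentrations against cells in 96-well plates for 48 hours. GI50: concentration for 50% inhibition of growth. TGI is the concentration that stops growth completely.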 A value given as a limit tells only on which side of the number the result lay.

Holding throughout (assay): inhibition of tumour cell growth, NCI panel, 48 h
Test [1] relates to MDA-MB-435.
Test [2] deals with PC-3 prostate.
Test [3] has as its system NCI/ADR-RES ovarian.
The subject of test [4] is MCF7 breast.
The subject of test [5] is BT-549 breast.
In test [6] the test system is T-47D breast.

On to `Cc1c(S(C)(=O)=O)c(-c2cc(F)cc(N3CCN(c4ccc(NS(=O)(=O)c5ccc(N[C@H](CCN6CCC(C(=O)OCCCP(=O)(O)O)CC6)CSc6ccccc6)c(S(=O)(=O)C(F)(F)F)c5)cc4)CC3)c2)c(-c2ccc(Cl)cc2)n1C(C)C`, for which the GI50 in test [1], in test [2], in test [3], in test [4], in test [5] and in test [6] was over 100 µM each time. Also, the TGI in test [1], in test [2], in test [3], in test [4], in test [5] and in test [6] was over 100 µM each time.

Turning to `Cc1ccc(/C(=N\N=C(N)N)c2ccccc2)cc1`, the GI50 is 0.203 µM in test [1]; 0.406 µM in test [2]; 1.09 µM in test [3]; 0.292 µM in test [4]; 0.744 µM in test [5]; 0.421 µM in test [6]. The TGI in test [1] was determined as 0.631 µM; in test [2], 18.7 µM; in test [3], 4.51 µM; in test [4], 10.2 µM; in test [5], 7.62 µM; in test [6], 24.6 µM.

As for `CCCCCCCNc1nc(C(=O)OCC)ncc1-c1ccc(C(F)(F)F)cc1`, the GI50 is 32.1 µM in test [1]; 26.6 µM in test [2]; 34.5 µM in test [3]; 28.1 µM in test [4]; 29.1 µM in test [5]; 28.1 µM in test [6]. The TGI in test [1] is over 100 µM; in test [2], over 100 µM; in test [3], over 100 µM; in test [4], over 100 µM; in test [5], 97.7 µM; in test [6] it was over 100 µM.

On to `CSC(CC(=O)O)C(=O)O` (stereo not drawn), for which the TGI in test [1], in test [2], in test [3], in test [4], in test [5] and in test [6] was over 100 µM throughout.

Take `O=C1C(c2c[nH]c3ccccc23)=C(c2c[nH]c3ccccc23)C(=O)N1O`: the GI50 in test [1], in test [2], in test [3], in test [4], in test [5] and in test [6] was over 25 µM in each case. The TGI in test [1], in test [2], in test [3], in test [4], in test [5] and in test [6] was over 25 µM in each case.

For the compound `COc1ccc(-c2oc3c(OC)c(OC)c(OC)c(O)c3c(=O)c2OC)cc1OC`, the TGI is 32.9 µM in test [1]; over 93 µM in test [2]; over 72 µM in test [3]; over 35.1 µM in test [4]; over 100 µM in test [5]; 25.6 µM in test [6].

On to `CCc1n(Cc2ccc3ccccc3n2)cc[n+]1Cc1ccc2ccccc2n1`, for which the GI50 in test [1] is 0.141 µM; in test [2] it was 0.163 µM; in test [3], over 100 µM; in test [4], 0.135 µM; in test [5], 0.278 µM; in test [6], 0.046 µM. Moreover, the TGI in test [1] was 10.3 µM; in test [2] it was 10.7 µM; in test [3], over 100 µM; in test [4], 11.6 µM; in test [5] it was 11.2 µM; in test [6], 0.794 µM.

For the compound `O=[N+]([O-])c1ccc(S(=O)Cc2ccccc2)c([N+](=O)[O-])c1` (stereo not drawn), the GI50 was 2.51 µM in test [1]; 14.6 µM in test [2]; 13.5 µM in test [3]; 2.48 µM in test [4]; 2.09 µM in test [5]; 1.51 µM in test [6]. The TGI in test [1] stood at 7.69 µM; in test [2], 30.9 µM; in test [3], 35.4 µM; in test [4], 6.96 µM; in test [5] it was 7.37 µM; in test [6] it was 3.6 µM.

As to `C=C1SC(=Nc2c(C)cc(C)cc2C)N(C(=O)c2sc3ccccc3c2Cl)C12CCCCC2`, the GI50 in test [1] is over 100 µM; in test [2], 22.3 µM; in test [3] it was over 100 µM; in test [4], over 100 µM; in test [5], over 100 µM; in test [6], 9.69 µM. Further, the TGI in test [1], in test [2], in test [3], in test [4], in test [5] and in test [6] was over 100 µM each time.

With `COc1ccc(C2SCC(=O)N2NC(=O)C(O)c2ccccc2)cc1OC` (stereo not drawn), the GI50 in test [1], in test [2], in test [3], in test [4], in test [5] and in test [6] was over 100 µM each time. For the same compound, the TGI in test [1], in test [2], in test [3], in test [4], in test [5] and in test [6] was over 100 µM in each case.
